One molecule from patent US20090209602A1, “CHEMICAL COMPOUNDS” (priority 2006, published 2009) can be followed below.

pIC50: −log10 of the molar value.

This assay deals with T1, human DGAT1 (Homo sapiens, UniProt O75907).
T1 construct: made in house; host or cells: Sf9 insect cells (recombinant baculovirus), membrane fraction
T1 sequence (O75907 1-488): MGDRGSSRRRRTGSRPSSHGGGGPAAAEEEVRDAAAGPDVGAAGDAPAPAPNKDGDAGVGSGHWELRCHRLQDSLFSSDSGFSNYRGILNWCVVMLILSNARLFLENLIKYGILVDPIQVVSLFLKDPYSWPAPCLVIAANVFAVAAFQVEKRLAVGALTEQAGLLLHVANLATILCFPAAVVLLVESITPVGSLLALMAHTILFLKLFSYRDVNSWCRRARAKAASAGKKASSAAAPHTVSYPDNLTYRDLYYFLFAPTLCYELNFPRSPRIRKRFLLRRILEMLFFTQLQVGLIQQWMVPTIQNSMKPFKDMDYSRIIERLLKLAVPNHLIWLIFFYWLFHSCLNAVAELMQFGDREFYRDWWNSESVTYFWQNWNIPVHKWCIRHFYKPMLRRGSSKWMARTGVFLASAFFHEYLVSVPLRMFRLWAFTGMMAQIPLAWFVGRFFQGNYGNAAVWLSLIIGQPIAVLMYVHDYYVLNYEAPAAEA
The assay is described as follows: Human Enzyme Assay (DGAT1 inhibition). Type of assay: biochemical. As to conditions: human DGAT1 expressed in insect cell (sf9) membranes; 14C oleoyl coenzyme A, 30 minutes, room temperature. The method, then:
The in vitro assay to identify DGAT1 inhibitors uses human DGAT1 expressed in insect cell membranes as the enzyme source (Proc. Natl. Acad. Sci. 1998, 95, 13018-13023). Briefly, sf9 cells were infected with recombinant baculovirus containing human DGAT1 coding sequences and harvested after 48 h. Cells were lysed by sonication and membranes isolated by centrifuging at 28000 rpm for 1 h at 4° C. on a 41% sucrose gradient. The membrane fraction at the interphase was collected, washed, and stored in liquid nitrogen.
DGAT1 activity was assayed by a modification of the method described by Coleman (Methods in Enzymology 1992, 209, 98-102). Compound at 1-10 μM was incubated with 0.4 μg membrane protein, 5 mM MgCl2, and 100 μM 1,2 dioleoyl-sn-glycerol in a total assay volume of 200 μl in plastic tubes. The reaction was started by adding ^14C oleoyl coenzyme A (30 μM final concentration) and incubated at room temperature for 30 minutes. The reaction was stopped by adding 1.5 mL 2-propanol:heptane:water (80:20:2). Radioactive triolein product was separated into the organic phase by adding 1 mL heptane and 0.5 mL 0.1 M carbonate buffer pH 9.5. DGAT1 activity was quantified by counting aliquots of the upper heptane layer by liquid scintillography.

Regarding `O=C(O)CC1CCC(c2ccc(NC(=O)c3cnc(Nc4ccccc4)o3)cc2)CC1` (stereo not shown) [Example 1, [4-(4-{[(2-Anilino-1,3-oxazol-5-yl)carbonyl]amino}phenyl)cyclohexyl]acetic acid], the pIC50 is 7.00.

By pIC50 is commonly meant the IC50 on a negative log10 scale, so that one unit is a factor of ten.
